{"source": "patent US20260199368A1", "about": "“[…] SYSTEM CONTAINING REMIMAZOLAM” (LTS LOHMANN THERAPIE-SYSTEME AG, priority 2022, published 2026)", "key": {"Goettingen minipigs": {"system": "Goettingen minipigs", "experiment": "In vivo studies using Goettingen minipigs: depth of sedation score", "conditions": "Animal No 1; 10 min post dosing; IV, 2 mL of 5 mg/mL (10 mg)"}, "[1]": {"experiment": "pH and appearance of permeation donor solutions", "assay_type": "physicochemical", "conditions": "Artificial Saliva", "experimental": "(§1) The permeated amount and the corresponding mucosa permeation rates of the oromucosal delivery system prepared according to Examples 2a were determined by in vitro experiments in accordance with the OECD Guideline (adopted Apr. 13, 2004) using pig mucosa with a thickness of 400 μm (mucosa oesophagus). The donor solutions were prepared by dissolving a sample film of Example 2a with a size of 5.75 cm^2 either in 5 ml artificial saliva or in 5 ml 0.9% NaCl. The remimazolam besylate was dissolved in artificial saliva so that the applied dose of RMZ was equivalent to an oromucosal delivery system containing 50 mg remimazolam in 500 μL medium, and the pH of the mixture was adjusted as indicated in Table 19. The pH was measured using a pH electrode. The permeation donor solutions were directly applied to the mucosa (diffusion area of 4.524 cm^2). The remimazolam permeated amount in the receptor medium (phosphate buffer solution pH 7.4) at a temperature of 37±1° C. was measured and the corresponding mucosa permeation rate calculated.\n(§2) Due to the high variability in permeation run 1 (n=3), a second permeation experiment was performed with more replicates (n=6) to enlarge the data basis. The samples used are defined in table 15. Example 2a and Lyophilizate were dissolved in artificial saliva and 0.9% NaCl, respectively. Due to a pH adjustment in the lyophilizate/drug product, the resulting pH was slightly lower (pH 3.14 and pH 3.09) than with the Example 2a without pH adjustment (pH 3.67 and pH 3.50). A RMZ sample set to pH 3 served as a control."}, "[2]": {"experiment": "Mucosa permeation study (in vitro permeation test)", "assay_type": "in vitro ADME, pig", "experimental": "Where not otherwise indicated, the in vitro permeation test is performed with dermatomed split-thickness pig mucosa (mucosa oesophagus) with a thickness of 400 μm and an intact barrier function, and with phosphate buffer pH 7.4 as receptor medium (37° C.). The amount of active permeated into the receptor medium is determined in regular intervals using an HPLC method with a UV photometric detector by taking a sample volume. The measured amount of active permeated relates to the amount permeated between the two last sampling points and not the total amount permeated so far. Within the meaning of this invention, artificial saliva refers to an aqueous solution of 0.520 g/L potassium thiocyanate, 1.470 g/L potassium chloride, 0.190 g/L sodium dihydrogenphosphate monohydrate and 2.650 g/L sodium hydrogenphosphate dihydrate, adjusted to a pH of 7.0+/−0.05 using 1 N NaOH.\nFor the investigation of the potential impact of pH on the permeation, a permeation study was performed to assess the permeation of remimazolam besylate (RMZ besylate) through the mucosa in dependence of pH value. In a second run, also the performance of remimazolam lyophilizate product (RMZ besylate) vs. oromucosal delivery system was assessed.\nThe samples used for permeation run 1 are defined in Table 19.\nas §1, §2\nThe permeated amount and the corresponding mucosa permeation rates of the oromucosal delivery system prepared according to Examples 2a were determined as outlined above. The remimazolam permeated amount in the receptor medium (phosphate buffer solution pH 7.4) at a temperature of 37±1° C. was measured and the corresponding mucosa permeation rate calculated."}}, "data": [{"smiles": "COC(=O)CC[C@@H]1N=C(c2ccccn2)c2cc(Br)ccc2-n2c(C)cnc21.O=S(=O)(O)c1ccccc1", "note": "[RMZ, remimazolam besylate]", "values": [{"measurement": "Sedation/anaesthesia score", "setting": "Goettingen minipigs", "value": "¾"}, {"measurement": "Appearance of Donor Solution", "setting": "[1]; run 1, set pH 2", "value": "Clear solution"}, {"measurement": "Appearance of Donor Solution", "setting": "[1]; run 1, set pH 3", "value": "Little RMZ solid"}, {"measurement": "Appearance of Donor Solution", "setting": "[1]; run 1, set pH 4.5", "value": "Much RMZ solid"}, {"measurement": "Appearance of Donor Solution", "setting": "[1]; run 1, set pH 6", "value": "Very much RMZ solid"}, {"measurement": "Appearance of Donor Solution", "setting": "[1]; run 2, set pH 3", "value": "Little RMZ solid"}, {"measurement": "permeation rate (assessment)", "setting": "[2]; artificial saliva, pH 4.5 and pH 6", "value": "poor"}, {"measurement": "mucosa permeation rate", "setting": "[2]; n = 3, in artificial saliva (pH 2), 2.5 min", "value": 1.98, "unit": "μg/cm^2 min"}, {"measurement": "mucosa permeation rate", "setting": "[2]; n = 3, in artificial saliva (pH 2), 7.5 min", "value": 2.09, "unit": "μg/cm^2 min"}, {"measurement": "mucosa permeation rate", "setting": "[2]; n = 3, in artificial saliva (pH 2), 12.5 min", "value": 1.83, "unit": "μg/cm^2 min"}, {"measurement": "mucosa permeation rate", "setting": "[2]; n = 3, in artificial saliva (pH 2), 17.5 min", "value": 1.95, "unit": "μg/cm^2 min"}, {"measurement": "mucosa permeation rate", "setting": "[2]; n = 3, in artificial saliva (pH 2), 22.5 min", "value": 1.92, "unit": "μg/cm^2 min"}, {"measurement": "mucosa permeation rate", "setting": "[2]; n = 3, in artificial saliva (pH 2), 27.5 min", "value": 2.04, "unit": "μg/cm^2 min"}, {"measurement": "mucosa permeation rate", "setting": "[2]; n = 3, in artificial saliva (pH 2), 45 min", "value": 1.36, "unit": "μg/cm^2 min"}, {"measurement": "mucosa permeation rate", "setting": "[2]; n = 3, in artificial saliva (pH 3), 2.5 min", "value": 0.19, "unit": "μg/cm^2 min"}, {"measurement": "mucosa permeation rate", "setting": "[2]; n = 3, in artificial saliva (pH 3), 7.5 min", "value": 0.75, "unit": "μg/cm^2 min"}, {"measurement": "mucosa permeation rate", "setting": "[2]; n = 3, in artificial saliva (pH 3), 12.5 min", "value": 1.18, "unit": "μg/cm^2 min"}, {"measurement": "mucosa permeation rate", "setting": "[2]; n = 3, in artificial saliva (pH 3), 17.5 min", "value": 1.43, "unit": "μg/cm^2 min"}, {"measurement": "mucosa permeation rate", "setting": "[2]; n = 3, in artificial saliva (pH 3), 22.5 min", "value": 1.62, "unit": "μg/cm^2 min"}, {"measurement": "mucosa permeation rate", "setting": "[2]; n = 3, in artificial saliva (pH 3), 27.5 min", "value": 1.80, "unit": "μg/cm^2 min"}, {"measurement": "mucosa permeation rate", "setting": "[2]; n = 3, in artificial saliva (pH 3), 45 min", "value": 1.60, "unit": "μg/cm^2 min"}, {"measurement": "mucosa permeation rate", "setting": "[2]; n = 3, in artificial saliva (pH 4.5), 2.5 min", "value": 0.09, "unit": "μg/cm^2 min"}, {"measurement": "mucosa permeation rate", "setting": "[2]; n = 3, in artificial saliva (pH 4.5), 7.5 min", "value": 0.37, "unit": "μg/cm^2 min"}, {"measurement": "mucosa permeation rate", "setting": "[2]; n = 3, in artificial saliva (pH 4.5), 12.5 min", "value": 0.22, "unit": "μg/cm^2 min"}, {"measurement": "mucosa permeation rate", "setting": "[2]; n = 3, in artificial saliva (pH 4.5), 17.5 min", "value": 0.26, "unit": "μg/cm^2 min"}, {"measurement": "mucosa permeation rate", "setting": "[2]; n = 3, in artificial saliva (pH 4.5), 22.5 min", "value": 0.34, "unit": "μg/cm^2 min"}, {"measurement": "mucosa permeation rate", "setting": "[2]; n = 3, in artificial saliva (pH 4.5), 27.5 min", "value": 0.58, "unit": "μg/cm^2 min"}, {"measurement": "mucosa permeation rate", "setting": "[2]; n = 3, in artificial saliva (pH 4.5), 45 min", "value": 0.26, "unit": "μg/cm^2 min"}, {"measurement": "mucosa permeation rate", "setting": "[2]; n = 3, in artificial saliva (pH 6), 2.5 min", "value": 0.11, "unit": "μg/cm^2 min"}, {"measurement": "mucosa permeation rate", "setting": "[2]; n = 3, in artificial saliva (pH 6), 7.5 min", "value": 0.18, "unit": "μg/cm^2 min"}, {"measurement": "mucosa permeation rate", "setting": "[2]; n = 3, in artificial saliva (pH 6), 12.5 min", "value": 0.18, "unit": "μg/cm^2 min"}, {"measurement": "mucosa permeation rate", "setting": "[2]; n = 3, in artificial saliva (pH 6), 17.5 min", "value": 0.31, "unit": "μg/cm^2 min"}, {"measurement": "mucosa permeation rate", "setting": "[2]; n = 3, in artificial saliva (pH 6), 22.5 min", "value": 0.37, "unit": "μg/cm^2 min"}, {"measurement": "mucosa permeation rate", "setting": "[2]; n = 3, in artificial saliva (pH 6), 27.5 min", "value": 0.58, "unit": "μg/cm^2 min"}, {"measurement": "mucosa permeation rate", "setting": "[2]; n = 3, in artificial saliva (pH 6), 45 min", "value": 0.47, "unit": "μg/cm^2 min"}, {"measurement": "mucosa permeation rate", "setting": "[2]; n = 6, in artificial saliva (pH 3), 2.5 min", "value": 0.01, "unit": "μg/cm^2 min"}, {"measurement": "mucosa permeation rate", "setting": "[2]; n = 6, in artificial saliva (pH 3), 7.5 min", "value": 0.21, "unit": "μg/cm^2 min"}, {"measurement": "mucosa permeation rate", "setting": "[2]; n = 6, in artificial saliva (pH 3), 12.5 min", "value": 0.65, "unit": "μg/cm^2 min"}, {"measurement": "mucosa permeation rate", "setting": "[2]; n = 6, in artificial saliva (pH 3), 17.5 min", "value": 1.08, "unit": "μg/cm^2 min"}, {"measurement": "mucosa permeation rate", "setting": "[2]; n = 6, in artificial saliva (pH 3), 22.5 min", "value": 1.38, "unit": "μg/cm^2 min"}, {"measurement": "mucosa permeation rate", "setting": "[2]; n = 6, in artificial saliva (pH 3), 27.5 min", "value": 1.56, "unit": "μg/cm^2 min"}, {"measurement": "mucosa permeation rate", "setting": "[2]; n = 6, in artificial saliva (pH 3), 45 min", "value": 1.23, "unit": "μg/cm^2 min"}, {"measurement": "mucosa permeation, comparison between samples", "setting": "[2]; run 2, n = 6, 0.9% NaCl and artificial saliva", "value": "no significant difference"}]}]}
